Molecules are shown by their SMILES. Converted amounts (≈) assume the structure as drawn. Structures can show the parent of a compound that is named as a salt.

Series [1] deals with bacteria, yeasts and moulds. The series is described as follows: Small scale study of microbial growth in naltrexone solutions. The note with it: for bacterial colony count: after 3 weeks incubation time; for microbial growth: summary b334. Here is the method:
This was also evidenced in a small scale study in which the microbial growth in solutions of naltrexone base and naltrexone hydrochloride were compared to a control after being stored for 25 days at 27° C. […] After 48 hours, the bacterial colony count increased to approximately 10^4 CFU/mL in the control sample and to approximately 10^2 CFU/mL in the NTX base sample. […] After 3 weeks incubation time, the bacterial colony count increased to ˜10^5 CFU/mL on the control sample, ˜10^3 CFU/mL for naltrexone base and ˜10^2 CFU/mL for naltrexone hydrochloride. Thus, a longer incubation time was required for growth of microbial colonies in the medicated samples.

The nature of series [2]: Stability study: drug content of hydrogel films after storage (HPLC), shelf life estimate. The class given is physicochemical. The note with it: 0-6 months, ambient and accelerated. The method, then: The stability of the transdermal patch of the invention may be investigated over the course of 6 months under ambient (20.9±0.6° C./43±2.5% RH) and accelerated (40° C./75% RH) conditions. The patches are tested at time intervals of 0, 1, 2, 3 and 6 months to determine the extent of any physical, chemical and microbial changes that may have occurred.
Packaged pouches were either placed under ambient conditions (20.9±0.7° C./46.0±3.1% RH) or under accelerated conditions (40° C./75% RH), for 6 months with intermediate testing at 0, 1, 2, 3 and 6 months according to the protocol in Table 7.
To quantify the amount of drug present at each time point, hydrogel films were removed from each patch (n=3) at 0, 1, 3 and 6 months and dissolved in 5 mL 80% v/v acetonitrile for 16 hours at 30° C. in an Elmasonic S 30 H sonicating water bath (Elma Schmidbauer, Singen, Germany). After 16 hours, the samples were filtered using 0.2 μm Whatman syringeless filters vials with nylon filter media and polypropylene housing (GE Healthcare UK Ltd., Little Chalfont, Buckinghamshire, UK) and injected in triplicate to the HPLC.
Based on the drug content of the hydrogels only, a shelf life may be predicted by extrapolating the data and calculating how long it would take to reach 90% of the stated dose. […]

The conditions of series [3]: cited from earlier work.
The conditions of series [4]: tertiary aliphatic nitrogen; cited from earlier work.
The nature of series [5]: Differential scanning calorimetry: drug crystallinity and saturation in PEO films. The class given is physicochemical. The note with it: from plot of enthalpy of fusion against drug concentration, y = 0. Here is the method: Differential scanning calorimetry (DSC) of NTX.base, NTX.HCl, PEO and loaded hydrogel films (irradiated and non-irradiated) may be performed with suitable DSC instruments, such as a DSC Q1000 (TA Instruments, New Castle, Del., USA). The DSC was conditioned for two hours prior to use. Samples (5-10 mg) were accurately weighed using a microbalance (Mettler-Toledo, Greifensee, Switzerland), placed in an aluminium hermetic sample pan and sealed with a hermetic lid (TA Instruments, New Castle, Del., USA). The samples were subjected to standard heat/cool/heat at a rate of 10° C./min, under a constant flow of nitrogen at a rate of 50 mL/min. Suitable settings include the following: • For NTX.base API and NTX.base loaded films, the heat/cool/heat cycle was from −80° C. to 200° C. to −80° C. to 200° C. • NTX.HCl API was heated from −80° C. to 285° C., then cooled to −80° C., and then heated for a second time to 285° C. […]
DSC analysis was performed, in accordance with the method described in the “Assays” part of the present disclosure. […] From the enthalpy of fusion values for NTX.HCl within the films, the saturation solubility of naltrexone hydrochloride within PEO was calculated by plotting enthalpy against drug concentration. […]

Series [6] has as its system bacteria, moulds and yeasts. The series is described as follows: Stability study: microbiology of patches (Mikrocount duo dipslides). The note with it: storage up to 6 months, ambient and accelerated. Here is the method:
Mikrocount® duo dipslides (Schulke & Mayr GmbH, Norderstedt, Germany) were used to determine total plate count and to detect presence of moulds and yeasts. The surface of each side of the dipslide was placed in contact with the hydrogel surface of the patch for 5 seconds. The dipslides were then placed in their sealed container and incubated for 72 hours at 27±1° C. Once incubated, the dipslides were compared to images within the Mikrocount® brochure to evaluate the colony forming units per cm^2.

As for `O=C1CC[C@@]2(O)[C@H]3Cc4ccc(O)c5c4[C@@]2(CCN3CC2CC2)[C@H]1O5` [naltrexone base, 17-(Cyclopropylmethyl)-4,5α-epoxy-3,14-dihydroxymorphinan-6-one], the yeasts or moulds entry in series [1] (any incubation time point) was “No yeasts or moulds were detected”. Also, in series [1] (solutions), the bacterial colony count is reported as ~10^3 CFU/mL and the microbial growth entry is recorded as “approximately 10^3 CFU/mL”. Moreover, in series [2], the “degradation of naltrexone under storage (HPLC chromatograms)” value is “did not degrade under storage into any other compounds”. For the same molecule, in series [3], the aqueous solubility was 510 µg/mL (≈ 1490 µM). For the same molecule, the pKa in series [4] was 8.3.
For the molecule `O=C1CC[C@@]2(O)[C@H]3Cc4ccc(O)c5c4[C@@]2(CCN3CC2CC2)[C@H]1O5` [naltrexone hydrochloride], in series [1] (solutions, hydrochloride), the bacterial colony count result is listed as “approximately 10^2 CFU/mL” and the microbial growth result is listed as “approximately 10^2 CFU/mL”. For the same molecule, the bacterial growth result in series [1] (solutions, after 72 hours) is reported as “Negligible bacterial growth”. The “maximum drug loading before crystals are loaded to the film (saturation solubility within PEO)” value in series [5] is on record as 4.40 % w/w.
On to `CC(O)CO` (centres unmarked) [propylene glycol], for which the “microbial growth on patches” value in series [6] was “prevented bacteria, yeast and mould from growing at all throughout the study”.

The values are drawn from patent US20220387342A1, “TRANSDERMAL PATCH” (University of Sunderland, priority 2019, published 2022).
